Earlier results as cited in US20080031860A1 (N.V. NUTRICIA, priority 2003, published 2008).

Legend:
[1] = after 4 weeks of therapy
[2] = intake of 10-20 mg per day

Compound	appetite [1]	reported adverse effect [2]
CCCCCc1cc(O)c2c(c1)OC(C)(C)[C@@H]1CCC(C)=C[C@@H]21 [dronabinol]	significantly stimulates appetite	–
calcium D-pantothenate	–	diarrhea
